# Measured values from patent publication US20200109126A1 (priority 2017, published 2020).
# pEC50, pKi: −log10 of the molar value. Where two headings read alike, the source gives them in different places.
# Experiments:
# [1] = biological target: T1, hMOR (Homo sapiens, UniProt P35372); experiment: Receptor binding with [3H]diprenorphine at hMOR
# [2] = biological target: humanDOR (Homo sapiens, UniProt P41143); experiment: Receptor binding with [3H]diprenorphine at human DOR
# [3] = biological target: T2, MM1 (MOR N127C) (Homo sapiens, UniProt P35372, N129C); experiment: Receptor binding at MM1 (MOR N127C)
# T2 construct: expressed in transfected cells; host or cells: HEK 293
# T2 sequence (P35372 whole entry N129C): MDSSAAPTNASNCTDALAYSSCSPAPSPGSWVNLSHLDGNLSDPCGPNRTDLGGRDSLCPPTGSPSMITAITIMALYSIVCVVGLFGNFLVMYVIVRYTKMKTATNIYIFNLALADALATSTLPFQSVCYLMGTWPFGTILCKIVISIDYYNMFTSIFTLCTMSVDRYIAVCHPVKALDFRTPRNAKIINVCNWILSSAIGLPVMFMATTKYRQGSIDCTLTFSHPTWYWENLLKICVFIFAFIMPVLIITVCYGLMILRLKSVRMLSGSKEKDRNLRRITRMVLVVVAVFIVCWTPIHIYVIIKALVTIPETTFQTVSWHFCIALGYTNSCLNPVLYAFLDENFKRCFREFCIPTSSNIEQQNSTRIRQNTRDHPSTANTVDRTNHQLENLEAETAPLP
# [4] = biological target: T3, hKOR (Homo sapiens, UniProt P41145); experiment: Receptor binding with [3H]diprenorphine at hKOR
# T3 sequence (P41145 whole entry): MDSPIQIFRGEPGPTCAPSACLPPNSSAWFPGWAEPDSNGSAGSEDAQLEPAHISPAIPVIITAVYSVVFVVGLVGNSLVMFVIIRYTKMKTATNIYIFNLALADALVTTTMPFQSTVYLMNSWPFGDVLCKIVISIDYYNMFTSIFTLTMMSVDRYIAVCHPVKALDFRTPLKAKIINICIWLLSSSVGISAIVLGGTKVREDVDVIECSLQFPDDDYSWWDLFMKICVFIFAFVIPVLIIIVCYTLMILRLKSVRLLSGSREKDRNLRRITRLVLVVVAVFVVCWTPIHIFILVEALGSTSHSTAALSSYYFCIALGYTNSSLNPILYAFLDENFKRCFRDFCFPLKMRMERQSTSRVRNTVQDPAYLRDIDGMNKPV
# [5] = biological target: T4, hMOR + Gqi5 (Homo sapiens, UniProt P35372); experiment: IP accumulation assay, hMOR + Gqi5; type: cell-based; details: % morphine
# T4 construct: expressed in transfected cells
# T4 sequence (P35372 whole entry): as the sequence (P35372 whole entry N129C) above, with C129N counted along it
# [6] = biological target: T1, hMOR; experiment: Radioligand binding studies (Example 6) at hMOR
# Protocol: (§1) For a primary screen of selected molecules, binding to μOR was assessed by measuring competition against the radioligand ^3H-diprenorphine (^3H-DPN). […] The reaction contained 40 fmol of μOR and was incubated in a buffer of 20 mM HEPES pH 7.5, 100 mM sodium chloride, and 0.1% bovine serum albumin for 1 hour at 25° C. To separate free from bound radioligand, reactions were rapidly filtered over Whatman GF/B filters with the aid of a Brandel harvester and ^3H-DPN counts were measured by liquid scintillation. […] Subsequently, the 8 compounds were tested in full dose-response for affinity at the μOR and the κOR by the National Institutes of Mental Health Psychoactive Drug Screen Program (PDSP), as were the affinities of the compounds at the μOR, δOR, κOR, and the nociception receptor.
# [7] = biological target: T3, hKOR; experiment: Radioligand binding studies (Example 6) at hKOR
# Protocol: as §1
# [8] = biological target: hDOR (Homo sapiens, UniProt P41143); experiment: Radioligand binding studies (Example 6) at hDOR
# hDOR, sequence (P41143 whole entry): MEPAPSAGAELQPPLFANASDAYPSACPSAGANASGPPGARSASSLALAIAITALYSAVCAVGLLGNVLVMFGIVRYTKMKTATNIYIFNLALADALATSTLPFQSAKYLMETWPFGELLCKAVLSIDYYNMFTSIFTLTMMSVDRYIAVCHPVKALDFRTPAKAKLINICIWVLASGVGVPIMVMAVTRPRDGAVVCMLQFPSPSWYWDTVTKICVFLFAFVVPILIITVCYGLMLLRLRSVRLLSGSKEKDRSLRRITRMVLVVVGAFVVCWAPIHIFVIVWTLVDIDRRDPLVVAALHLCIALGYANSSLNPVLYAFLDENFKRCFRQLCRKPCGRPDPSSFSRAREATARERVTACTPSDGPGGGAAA
# Protocol: as §1
# [9] = biological target: T5, μOR (Homo sapiens, UniProt P35372); experiment: BRET-based cAMP accumulation assay (SAR of PZM21-29); type: cell-based; details: for loss of potency: compared to parent reference compound (PZM22)
# T5 sequence (P35372 whole entry): as the sequence (P35372 whole entry N129C) above, with C129N counted along it
# [10] = biological target: T6, κOR (Homo sapiens, UniProt P41145); experiment: Radioligand binding at κOR (PDSP); details: for Ki: κOR Ki (μM); for κOR Ki, given as percentage: <50% instead of a Ki
# T6 construct: NIMH Psychoactive Drug Screening Program (PDSP)
# T6 sequence (P41145 whole entry): as the sequence (P41145 whole entry) above
# [11] = biological target: T5, μOR; experiment: cell-based; type: cell-based; details: ND = not detectable under these experimental conditions; for EC50: μOR Gi EC50 (μM)
# [12] = biological target: T5, μOR; experiment: biochemical; type: binding; design: expressed in transfected cells; host or cells: HEK293 membranes (Ki); Sf9 insect cell membranes (single-point screen); PDSP for analogs
# Protocol: For a primary screen of selected molecules, binding to OR was assessed by measuring competition against the radioligand ^3H-diprenorphine (^3H-DPN). […] The reaction contained 40 fmol of μOR and was incubated in a buffer of 20 mM HEPES pH 7.5, 100 mM sodium chloride, and 0.1% bovine serum albumin for 1 hour at 25° C. To separate free from bound radioligand, reactions were rapidly filtered over Whatman GF/B filters with the aid of a Brandel harvester and ^3H-DPN counts were measured by liquid scintillation.
# [13] = PZM analogs, (n) = number of independent experiments, read-out: binding affinity Ki hMOR
# [14] = PZM analogs, (n) = number of independent experiments, read-out: binding affinity Ki hDOR
# [15] = (n) = number of independent experiments, read-out: binding affinity Ki MM1 (MOR N127C)
# [16] = PZM analogs, (n) = number of independent experiments, read-out: binding affinity Ki hKOR
# [17] = ± SD (two experiments) or SEM, (n) experiments, read-out: humanDOR [3H]dyprenorphine Ki
# [18] = ± SD (two experiments) or SEM, (n) experiments, read-out: hKOR [3H]dyprenorphine Ki
# [19] = ± SD (two experiments) or SEM, (n) experiments, read-out: hMOR [3H]dyprenorphine Ki
# [20] = analogs, full dose-response, read-out: μOR Ki
# humanDOR, sequence (P41143 whole entry): as the sequence (P41143 whole entry) above
# T1 sequence (P35372 whole entry): as the sequence (P35372 whole entry N129C) above, with C129N counted along it
compound,measurement,setting,value
C[C@@H](Cc1ccsc1)NC(=O)NC[C@H](Cc1ccc(O)nc1)N(C)C,pKi,[1]; [13],5.34
same,pKi,[2]; [14],< 4.70
same,pKi,[3]; [15],5.42
same,pKi,[4]; [16],4.92
CN(C)[C@H](CNC(=O)NCCN1C(=O)C=CC1=O)Cc1ccc(O)cc1,pKi,[1]; [13],6.62
same,pKi,[2]; [14],6.35
same,pKi,[3]; [15],8.43
same,pKi,[4]; [16],6.22
CN(C)[C@H](CNC(=O)NCCCN1C(=O)C=CC1=O)Cc1ccc(O)cc1,pKi,[1]; [13],6.42
same,pKi,[2]; [14],5.51
same,pKi,[3]; [15],8.33
same,pKi,[4]; [16],6.35
CN(C)[C@H](CNC(=O)NCCCCN1C(=O)C=CC1=O)Cc1ccc(O)cc1,pKi,[1]; [13],6.00
same,pKi,[2]; [14],5.31
same,pKi,[3]; [15],8.23
same,pKi,[4]; [16],6.12
Cc1cc(O)cc(C)c1C[C@@H](CNC(=O)NCCN1C(=O)C=CC1=O)N(C)C,pKi,[1]; [13],7.74
same,pKi,[2]; [14],6.82
same,pKi,[3]; [15],9.03
same,pKi,[4]; [16],6.70
C[C@@H](CN1C(=O)C=CC1=O)NC(=O)NC[C@H](Cc1ccc(O)cc1)N(C)C,pKi,[1]; [13],6.39
same,pKi,[2]; [14],6.07
same,pKi,[3]; [15],8.25
same,pKi,[4]; [16],5.92
C[C@H](CN1C(=O)C=CC1=O)NC(=O)NC[C@H](Cc1ccc(O)cc1)N(C)C,pKi,[1]; [13],7.05
same,pKi,[2]; [14],6.68
same,pKi,[3]; [15],9.89
same,pKi,[4]; [16],6.16
CN(C)[C@H](CNC(=O)NCCc1c[nH]nn1)Cc1ccc(O)cc1,pKi,[1],6.02
same,pKi,[2],5.33
same,pKi,[3],6.20
same,pKi,[4],5.85
"CC(Cc1ccsc1)NC(=O)NCC(Cc1ccc(O)cc1)N(C)C (single isomer, unassigned) [BD 122LR]",pKi,[2]; [17],7.06
same,hMOR + Gqi5 IP accumulation assay efficacy a,[5],a: 17%
same,pKi,[4]; [18],6.72
"CC(Cc1ccsc1)NC(=O)NCC(Cc1ccc(O)cc1)N(C)C (single isomer, unassigned) [BD 122LS]",hMOR + Gqi5 IP accumulation assay efficacy a,[5],a: 73%
"Cc1cc(O)cc(C)c1C[C@@H](CNC(=O)N[C@H](C)Cc1ccsc1)N(C)C [BD 131LR, 1-((S)-2-(dimethylamino)-3-(4-hydroxy-2,6-dimethylphenyl)propyl)-3-((R)-1-(thiophen-3-yl)propan-2-yl)urea]",pKi,[1]; [19],8.39
same,pKi,[2]; [17],7.77
same,hMOR + Gqi5 IP accumulation assay efficacy a @10 μM,[5]; @10 μM,@10 μM a: 10%
same,pKi,[4]; [18],7.92
"Cc1cc(O)cc(C)c1C[C@@H](CNC(=O)N[C@@H](C)Cc1ccsc1)N(C)C [BD 131LS, 1-((S)-2-(dimethylamino)-3-(4-hydroxy-2,6-dimethylphenyl)propyl)-3-((S)-1-(thiophen-3-yl)propan-2-yl)urea]",pKi,[1]; [19],7.92
same,pKi,[2]; [17],7.07
same,hMOR + Gqi5 IP accumulation assay efficacy a,[5],a: <5%
same,pKi,[4]; [18],8.19
"C[C@@H](Cc1ccsc1)NC(=O)NC[C@@H]1Cc2ccc(O)cc2CN1C [DD118, 1-(((S)-7-hydroxy-2-methyl-1,2,3,4-tetrahydroisoquinolin-3-yl)methyl)-3-((S)-1-(thiophen-3-yl)propan-2-yl)urea]",pKi,[6],6.82
same,pKi,[7],6.96
same,pKi,[8],6.82
"COc1cc(F)ccc1CCNC(=O)NC[C@H](Cc1ccc(O)cc1)N(C)C [DD214, (S)-1-(2-(dimethylamino)-3-(4-hydroxyphenyl)propyl)-3-(4-fluoro-2-methoxyphenethyl)urea]",pKi,[6],7.38
same,pKi,[7],6.77
same,pKi,[8],6.41
"COc1ccc(C[C@@H](CNC(=O)N[C@@H](C)Cc2ccsc2)N(C)C)cc1 [DD222, 1-((S)-2-(dimethylamino)-3-(4-methoxyphenyl)propyl)-3-((S)-1-(thiophen-3-yl)propan-2-yl)urea]",pKi,[6],6.41
same,pKi,[7],6.34
same,pKi,[8],5.23
"CN[C@H](CNC(=O)NCCc1ccc(F)cc1OC)Cc1ccc(O)cc1 [DD229, (5)-1-(4-fluoro-2-methoxyphenethyl)-3-(3-(4-hydroxyphenyl)-2-(methylamino)propyl)urea]",pKi,[6]; read-out: Binding affinities hMOR [3H]dyprenorph,6.89
same,pKi,[7]; read-out: Binding affinities hKOR [3H]dyprenorph,6.49
same,pKi,[8]; read-out: Binding affinities hDOR [3H]dyprenorph,6.32
"CC(=O)Oc1ccc(C[C@@H](CNC(=O)N[C@@H](C)Cc2ccsc2)N(C)C)cc1 [DD230, 4-((S)-2-(dimethylamino)-3-(3-((S)-1-(thiophen-3-yl)propan-2-yl)ureido)propyl)phenyl acetate]",pKi,[6],6.62
same,pKi,[7],6.60
same,pKi,[8],6.04
"CN(C)[C@H](CNc1c(NCCc2ccccc2)c(=O)c1=O)Cc1ccc(O)cc1 [DD247, (S)-3-((2-(dimethylamino)-3-(4-hydroxyphenyl)propyl)amino)-4-(phenethylamino)cyclobut-3-ene-1,2-dione]",pKi,[6],6.49
same,pKi,[7],6.51
same,pKi,[8],5.54
"C[C@@H](Cc1ccsc1)Nc1c(NC[C@H](Cc2ccc(O)cc2)N(C)C)c(=O)c1=O [DD251, 3-(((S)-2-(dimethylamino)-3-(4-hydroxyphenyl)propyl)amino)-4-(((S)-1-(thiophen-3-yl)propan-2-yl)amino)cyclobut-3-ene-1,2-dione]",pKi,[6],7.48
same,pKi,[7],7.80
same,pKi,[8],6.19
"CN(C)[C@H](CNc1nc(=O)cc(Cc2ccccc2)[nH]1)Cc1ccc(O)cc1 [DD258, (S)-6-benzyl-2-((2-(dimethylamino)-3-(4-hydroxyphenyl)propyl)amino)pyrimidin-4(1H)-one]",pKi,[6],6.54
same,pKi,[7],6.46
same,pKi,[8],6.41
"CN(CC1CC1)[C@H](CNC(=O)NCCc1ccccc1)Cc1ccc(O)cc1 [PZM27, (S)-1-(2-((Cyclopropylmethyl)(methyl)amino)-3-(4-hydroxyphenyl)propyl)-3-phenethylurea x CF3COOH]",efficacy and potency as agonist (in words),[9],decreased efficacy
same,loss of potency,[9],30 fold
"CN(C=O)[C@H](CNC(=O)NCCc1ccccc1)Cc1ccc(O)cc1 [PZM28, (S)—N-(1-(4-Hydroxyphenyl)-3-(3-phenethylureido)propan-2-yl)-N-methylformamide]",loss of potency,[9],1000 fold
CC(C)[C@H](CNC(=O)c1ccc([N+](=O)[O-])s1)N1CCc2ccccc2C1 [compound 8],pKi,"[10]; analogs, full dose-response, read-out: κOR Ki",6.34
same,pEC50,[11]; read-out: μOR Gi EC50,5.18
same,pKi,[12]; [20],6.09
O=C(Cc1cn2ccccc2n1)NCC1(c2ccccc2)CCC1 [compound 9],Ki,"[10]; analogs, full dose-response",1.36 µM
same,"μOR Ki column, given as percentage",[12]; <50% instead of a Ki,<50%
CN(Cc1nnc(C2CC2)n1C)C(=O)NC[C@@H](Cc1ccccc1)N(C)C [compound 10],"κOR Ki, given as percentage",[10],<50%
same,pKi,[12],5.32
CN(C)[C@@H](CNC(=O)NC[C@@H](O)c1cnn(C)c1)Cc1ccccc1 [compound 11],"κOR Ki, given as percentage",[10],<50%
same,pKi,[12]; [20],5.73
COc1nc(C)cc(C)c1CNC(=O)NC[C@@H](Cc1ccccc1)N(C)C [compound 13],Ki,"[10]; analogs, full dose-response",1.02 µM
same,EC50,[11],3.1 µM
same,pKi,[12],6.26
CN(C)[C@H](CNC(=O)NCc1cccc([N+](=O)[O-])c1)Cc1ccccc1 [compound 14],Ki,"[10]; analogs, full dose-response",0.51 µM
same,EC50,[11],0.44 µM
same,pKi,[12],7.06
Cc1nc(CNC(=O)NC[C@@H](Cc2ccccc2)N(C)C)sc1C [compound 15],"κOR Ki, given as percentage",[10],<50%
same,pKi,[12],6.89
CN(C)[C@H](CNC(=O)NCCc1cn(CCSSCCN=[N+]=[N-])nn1)Cc1ccc(O)cc1 [drawing 545],pKi,[1]; [13],6.38
same,pKi,[2]; [14],5.41
same,pKi,[3]; [15],7.47
same,pKi,[4]; [16],5.82
"(S)-1-(2-(dimethylamino)-3-(4-hydroxy-2,6-dimethylphenyl)propyl)-3-(2-(thiophen-3-yl)ethyl)urea [DD 34L]",pKi,[1]; [19],8.21
same,pKi,[2]; [17],7.29
same,hMOR + Gqi5 IP accumulation assay efficacy a,[5],a: <5%
same,pKi,[4]; [18],7.57
